Experimental findings from patent publication US7671054B1, “Reverse-turn mimetics and method relating thereto” (Choongwae Pharma Corporation, priority 2001, dated 2010) are described below.

As usually defined, the IC50 is the concentration at which inhibition is half-maximal.

The assay deals with TCF4/β-catenin transcription (TOPFlash) in SW480 cells. Nature of the assay: Reporter gene assay (TOPFlash luciferase). Type of assay: cell-based. Particulars: Homo sapiens, SW480, Table 4; Reporter gene assay as described in Example 6; read-out: IC50. How it is done: SW480 cells were transfected with the usage of Superfect™ transfect reagent (Qiagen, 301307). Cells were trypsinized briefly 1 day before transfection and plated on 6 well plate (5×10^5 cells/well) so that they were 50-80% confluent on the day of transfection.
Four microgram (TOPFlash) and one microgram (pRL-null) of DNAs were diluted in 150 μl of serum-free medium, and 30 μl of Superfect™ transfect reagent was added. The DNA-Superfect mixture was incubated at room temperature for 15 min, and then, 1 ml of 10% FBS DMEM was added to this complex for an additional 3 hours of incubation. While complexes were forming, cells were washed with PBS twice without antibiotics.
The DNA-Superfect™ transfect reagent complexes were applied to the cells before incubating at 37° C. at 5% CO2 for 3 hours. After incubation, recovery medium with 10% FBS was added to bring the final volume to 1.18 ml. After 3 hours incubation, the cells were harvested and reseeded to 96 well plate (3×10^4 cells/well). After overnight incubation at 37° C. at 5% CO2, the cells were treated with Compound A for 24 hours. Finally, the activity was checked by means of luciferase assay (Promega, E1960).
On to `CN1CC(=O)N2[C@@H](Cc3ccc(O)cc3)C(=O)N(Cc3ccc4cccnc4c3)C[C@@H]2N1C(=O)NCc1ccccc1` [Compound 95], for which the IC50 was 13.3 ± 1.4 µM. Then `CN1CC(=O)N2[C@@H](Cc3ccc(NC=O)cc3)C(=O)N(Cc3cccc4ccccc34)C[C@@H]2N1C(=O)NCc1ccccc1` [Compound 68], with 4.3 ± 0.8 µM; and `C=CCN1CC(=O)N2[C@@H](Cc3ccc(O)cc3)C(=O)N([C@H](C)c3ccccc3)C[C@@H]2N1C(=O)NCc1ccccc1` [Compound 183], with 12.8 ± 0.9 µM; and `C=CCN1CC(=O)N2[C@@H](Cc3ccc(O)cc3)C(=O)N(Cc3ccc(OC)cc3)C[C@@H]2N1C(=O)NCc1ccc(Cl)c(Cl)c1` [Compound 215], with 18 ± 5.1 µM. For `C=CCN1CC(=O)N2[C@@H](Cc3ccc(O)cc3)C(=O)N(Cc3cccc(OCCN4CCOCC4)c3)C[C@@H]2N1C(=O)NCc1ccccc1` [Compound 132], the IC50 stood at 2.3 ± 0.5 µM. Then `C#CCN1CC(=O)N2[C@@H](Cc3ccc(O)cc3)C(=O)N(Cc3ccc4ncsc4c3)C[C@@H]2N1C(=O)NCc1ccccc1` [Compound 141], with 1.8 ± 0.3 µM; and `CCCN1CC(=O)N2[C@@H](Cc3ccc(O)cc3)C(=O)N(Cc3ccc(F)cc3F)C[C@@H]2N1C(=O)NCc1ccccc1` [Compound 157], with 4.2 ± 0.1 µM. Then `CN1CC(=O)N2[C@@H](Cc3ccc(O)cc3)C(=O)N(Cc3cccc4occc34)C[C@@H]2N1C(=O)NCc1ccccc1` [Compound 40], with 7 µM. As for `CN(C)c1cccc(CN2C[C@H]3N(C(=O)CN(C)N3C(=O)NCc3ccccc3)[C@@H](Cc3ccc(O)cc3)C2=O)c1` [Compound 38], the figure is 7.1 µM; as for `C=CCN1CC(=O)N2[C@@H](Cc3ccc(O)cc3)C(=O)N(Cc3cccc4cccnc34)C[C@@H]2N1C(=O)NCc1ccc(Cl)c(Cl)c1` [Compound 199], 1 ± 0.2 µM. With `CN1CC(=O)N2[C@@H](Cc3ccc(O)cc3)C(=O)N(Cc3cccc4nn(CCN5CCOCC5)cc34)C[C@@H]2N1C(=O)NCc1ccccc1` [Compound 100], the IC50 was found to be 2.7 ± 0.3 µM. As for `CN1CC(=O)N2[C@@H](Cc3ccc(O)cc3)C(=O)N(Cc3ccc(Cl)c(Cl)c3)C[C@@H]2N1C(=O)NCc1ccccc1` [Compound 29], the figure is 3.8 µM; as for `CN1CC(=O)N2[C@@H](Cc3ccc(O)cc3)C(=O)N(Cc3ccc(F)cc3F)[C@@H](CO)[C@@H]2N1C(=O)NCc1ccccc1` [Compound 82], 68.1 ± 8.9 µM; as for `C=CCN1CC(=O)N2[C@@H](Cc3ccc(O)cc3)C(=O)N(Cc3cccc4c3OCCO4)C[C@@H]2N1C(=O)NCc1ccc(Cl)c(Cl)c1` [Compound 204], 1.9 ± 0.1 µM.

Turning to `C[C@H](c1ccc(F)c(N(C)C)c1)N1C[C@H]2N(C(=O)CN(C)N2C(=O)NCc2ccccc2)[C@@H](Cc2ccc(O)cc2)C1=O` [Compound 59], the IC50 came to 5.3 ± 1.3 µM. As for `C=CCN1CC(=O)N2[C@@H](Cc3ccc(O)cc3)C(=O)N(Cc3cccc(N(C)C(=O)CCCCC)c3)C[C@@H]2N1C(=O)NCc1ccccc1` [Compound 194], the figure is 3.2 ± 0.4 µM; as for `C=CCN1CC(=O)N2[C@@H](Cc3ccc(O)cc3)C(=O)N(Cc3cccc4c3OCC4)C[C@@H]2N1C(=O)NCc1ccccc1` [Compound 205], 3.5 ± 0.8 µM. On to `C=CCN1CC(=O)N2[C@@H](Cc3ccc(O)cc3)C(=O)N([C@@H](C)c3ccc(Cl)c4cccnc34)C[C@@H]2N1C(=O)NCc1ccccc1` [Compound 185], for which the IC50 came to 23.4 ± 1.9 µM. As for `CN1CC(=O)N2C(CN(Cc3ccccc3Cl)C(=O)[C@@H]2Cc2ccc(O)cc2)N1C(=O)NCc1ccccc1` (some centres unmarked) [Compound 17], the figure is 14.3 µM; as for `CN(Cc1cccc(CN2C[C@H]3N(C(=O)CN(C)N3C(=O)NCc3ccccc3)[C@@H](Cc3ccc(O)cc3)C2=O)c1)C1CCOCC1` [Compound 120], 34.4 ± 4.9 µM. As for `C=CCN1CC(=O)N2[C@@H](Cc3ccc(O)cc3)C(=O)N(Cc3cc(C)cc4c3N(C)CCO4)C[C@@H]2N1C(=O)NCc1ccccc1` [Compound 167], the figure is 1.3 ± 0.1 µM; as for `C=CCN1CC(=O)N2[C@@H](Cc3ccc(O)cc3)C(=O)N(Cc3cccc4sc(-c5ccccc5)nc34)C[C@@H]2N1C(=O)NCc1ccccc1` [Compound 221], 4.7 ± 3.5 µM. As for `C#CCN1CC(=O)N2[C@@H](Cc3ccc(O)cc3)C(=O)N(Cc3ccc(C)c(N4CCOCC4)c3)C[C@@H]2N1C(=O)NCc1ccccc1` [Compound 134], the figure is 4.5 ± 0.9 µM; as for `CN1CC(=O)N2[C@@H](Cc3ccc(O)cc3)C(=O)N(Cc3ccc(F)cc3F)C[C@@H]2N1C(=O)NCc1ccc(Br)cc1` [Compound 201], 5.8 ± 0.4 µM. As to `C=CCN1CC(=O)N2[C@@H](Cc3ccc(O)cc3)C(=O)N(Cc3ccc(F)cc3F)C[C@@H]2N1C(=O)NCc1ccc(F)cc1` [Compound 175], the IC50 came out at 5.4 ± 0.5 µM. As for `CCCN1CC(=O)N2[C@@H](Cc3ccc(O)cc3)C(=O)N(Cc3cccc4cccnc34)C[C@@H]2N1C(=O)NCc1ccccc1` [Compound 122], the IC50 stood at 2.1 ± 0.4 µM. Then `CCCN1CC(=O)N2[C@@H](Cc3ccc(O)cc3)C(=O)N(Cc3cccc(N4CCOCC4)c3)C[C@@H]2N1C(=O)NCc1ccccc1` [Compound 124], with 6.4 ± 0.4 µM; and `C=CCN1CC(=O)N2[C@@H](Cc3ccc(O)cc3)C(=O)N(Cc3cccc(NC)c3)C[C@@H]2N1C(=O)NCc1ccccc1` [Compound 193], with 2.5 ± 0.5 µM. Turning to `CN1CC(=O)N2[C@@H](Cc3ccc(O)cc3)C(=O)N(Cc3cccc4c3cnn4Cc3ccccc3N)C[C@@H]2N1C(=O)NCc1ccccc1` [Compound 88], the IC50 was 2.2 ± 0.2 µM. As for `C=CCN1CC(=O)N2[C@@H](Cc3ccc(O)cc3)C(=O)N(Cc3cccc(N4CCCC4=O)c3)C[C@@H]2N1C(=O)NCc1ccccc1` [Compound 152], the figure is 1.2 ± 0.3 µM; as for `C=CCN1CC(=O)N2[C@@H](Cc3ccc(O)cc3)C(=O)N(Cc3cccc4sc(N5CCOCC5)nc34)C[C@@H]2N1C(=O)NCc1ccccc1` [Compound 219], 2.2 ± 0.7 µM; as for `CN1CC(=O)N2[C@@H](Cc3ccc(O)cc3)C(=O)N(Cc3cccc4nnn(C)c34)C[C@@H]2N1C(=O)NCc1ccccc1` [Compound 75], 50.5 ± 18.4 µM. As for `C=CCN1CC(=O)N2[C@@H](Cc3ccc(O)cc3)C(=O)N(Cc3cccc4c3OCCN4C)C[C@@H]2N1C(=O)NCc1ccccc1` [Compound 158], the figure is 0.9 ± 0.02 µM; as for `C[C@@H]1[C@H]2N(C(=O)CN(C)N2C(=O)NCc2ccccc2)[C@@H](Cc2ccc(O)cc2)C(=O)N1Cc1ccc(Cl)c(N(C)C)c1` [Compound 83], 46.4 ± 3.7 µM. Then `C=CCN1CC(=O)N2[C@@H](Cc3ccc(OP(=O)(O)O)cc3)C(=O)N(Cc3ccccc3)C[C@@H]2N1C(=O)NCc1ccccc1` [Compound 174], with 1 ± 0.1 µM; and `C=CCN1CC(=O)N2[C@@H](Cc3ccc(OP(=O)(O)O)cc3)C(=O)N(Cc3ccc(Cl)c(N(C)C)c3)C[C@@H]2N1C(=O)NCc1ccccc1` [Compound 161], with 1.8 ± 0.2 µM. `C=CCN1CC(=O)N2[C@@H](Cc3ccc(O)cc3)C(=O)N(Cc3cccc4c3OCO4)C[C@@H]2N1C(=O)NCc1ccccc1` [Compound 202]: the IC50 is 0.7 ± 0.1 µM. As for `C#CCn1ncc2ccc(CN3C[C@H]4N(C(=O)CN(C)N4C(=O)NCc4ccccc4)[C@@H](Cc4ccc(O)cc4)C3=O)cc21` [Compound 93], the figure is 6.8 ± 1.3 µM. On to `C#CCN1CC(=O)N2[C@@H](Cc3ccc(O)cc3)C(=O)N(Cc3ccc4c(c3)OCCN4C)C[C@@H]2N1C(=O)NCc1ccccc1` [Compound 146], for which the IC50 came to 16.7 ± 1.4 µM. Then `CN1CC(=O)N2C(Cc3ccc(O)cc3)C(=O)N(Cc3cccc4ccccc34)CC2N1C(=O)NCc1ccc(Cl)c(Cl)c1` (centres unmarked) [Compound 3], with 13.9 µM; and `CN1CC(=O)N2[C@@H]([C@H](O)c3ccc(O)cc3)C(=O)N(Cc3ccc(F)cc3F)C[C@@H]2N1C(=O)NCc1ccccc1` [Compound 113], with 7.3 ± 1.1 µM; and `C=CCN1CC(=O)N2[C@@H](Cc3ccc(O)cc3)C(=O)N(Cc3cccc4c3OCCO4)C[C@@H]2N1C(=O)NCc1ccccc1` [Compound 203], with 0.7 ± 0.1 µM.

On to `CN1CC(=O)N2[C@@H](Cc3ccc(O)cc3)C(=O)N(Cc3ccccc3SC(F)(F)F)C[C@@H]2N1C(=O)NCc1ccccc1` [Compound 31], for which the IC50 was 11.9 µM. Then `C#CCN1CC(=O)N2[C@@H](Cc3ccc(O)cc3)C(=O)N(Cc3cc(F)c(F)cc3N(C)C)C[C@@H]2N1C(=O)NCc1ccccc1` [Compound 108], with 1.6 ± 0.1 µM; and `C=CCN1CC(=O)N2[C@@H](CN([C@H](C)c3ccccc3)C(=O)[C@@H]2Cc2ccc(O)cc2)N1C(=O)NCc1ccccc1` [Compound 184], with 1.2 ± 0.1 µM. As for `C[C@H]1[C@@H]2N(C(=O)CN(C)N2C(=O)NCc2ccccc2)[C@@H](Cc2ccc(O)cc2)C(=O)N1Cc1ccc(F)cc1F` [Compound 69], the figure is 1.4 ± 0.7 µM; as for `C=CCN1CC(=O)N2[C@@H](Cc3ccc(O)cc3)C(=O)N(Cc3cccc4sc(N)nc34)C[C@@H]2N1C(=O)NCc1ccccc1` [Compound 225], 0.1 ± 0.1 µM; as for `C=CCN1CC(=O)N2[C@@H](Cc3ccc(OP(=O)(O)O)cc3)C(=O)N(Cc3cc(F)c(F)cc3N(C)C)C[C@@H]2N1C(=O)NCc1ccccc1` [Compound 163], 1.7 ± 0.5 µM. On to `CC(c1cc(N(C)C)cc(C(F)(F)F)c1)N1C[C@H]2N(C(=O)CN(C)N2C(=O)NCc2ccccc2)[C@@H](Cc2ccc(O)cc2)C1=O` (some centres unmarked) [Compound 60], for which the IC50 stood at 6.9 ± 1.7 µM. As for `CN1CC(=O)N2C(CN(Cc3cccc(F)c3)C(=O)[C@@H]2Cc2ccc(O)cc2)N1C(=O)NCc1ccccc1` (some centres unmarked) [Compound 9], the figure is 6.7 µM.
